Assay results as given in US7105173B1, “Nicotine replacement applique” (priority 2002, dated 2006).

Tests used:
[1] = cited from earlier work

## CN1CCCC1c1cccnc1 (centres unmarked) [nicotine]
other
  LD50 oral level expressed as total amount for a small infant: about 250 mg
[1]
  LD50 oral level: approximately 55 milligrams per Kilogram of body weight
